Test results published in patent publication US20070142319A1, “Anxiolytic treatment by inhibition of a polysialyltransferase” (The Burnham Institute, priority 2004, published 2007).

Key:
[1] = tested on: cell surface membrane resialylation; details: compounds that affect intracellular pools of CTP; cited from earlier work
CA3 mossy fiber synapses = assay: Mossy fiber-CA3 extracellular recordings of fEPSPs in hippocampal slices; design: species or system mouse
Excerpt: Hippocampal slices from five- to six-month-old ST8Sia-II-deficient mice and their wild-type littermates were used for recordings. After halothane anesthesia, decapitation and removal of the brain, the hippocampi were cut with a VT 1000M vibratome (Leica, Nussloch, Germany) in slices 300 μm thick in ice-cold artificial cerebrospinal fluid (ACSF) containing (in mM): 250 sucrose, 25 NaHCO3, 25 glucose, 2.5 KCl, 1.25 NaH2PO4, 2 CaCl2, and 1.5 MgCl2, pH 7.3. […]
The LTP-inducing high-frequency stimulation (HFS) consisted of one train of stimuli applied at 100 Hz during 1 sec once (“weak” stimulation protocol) or repeated four times with an interval of 20 sec (“strong” stimulation protocol). […] To additionally confirm that the fEPSPs recorded were evoked by the stimulation of mossy fibers and not by the associational/commissural pathway, an agonist of type II metabotropic glutamate receptors (L-CCG1, 10 μM; Tocris), which is known to reduce synaptic transmission in CA3 mossy fiber synapses (Manzoni, et al. Neuropharmacology (1995) 34:965-71), was applied at the end of each experiment. […] Basal synaptic transmission was monitored at 0.033 Hz. The mean amplitude of fEPSPs recorded 0-10 min before HFS was taken as 100%. Post-tetanic potentiation (PTP) was calculated as the maximal increase in the amplitude of fEPSP after HFS. […]

cultured neurons = details: acts as chain terminator after conversion to unnatural sialic acid derivative; cited from earlier work

Structure (SMILES)	cell surface membrane resialylation [1]	other results
Nc1ccn([C@@H]2O[C@H](CO)[C@@H](O)[C@@H]2O)c(=O)n1 [1-beta-D-arabinofuranosylcytosine]	curtail	–
N[C@H](C(=O)O)[C@@H]1CC(Cl)=NO1 [acivicin]	curtail	–
NC(CCCP(=O)(O)O)C(=O)O (stereo not drawn) [AP-5]	–	effect on the amplitude of recorded fEPSPs (CA3 mossy fiber synapses; AP-5 50 μM, wild-type or ST8Sia-II deficient samples): did not affect the amplitude
CCCC(=O)N[C@@H]1C(O)O[C@H](CO)[C@@H](O)[C@@H]1O (stereo partly drawn) [N-butanoylmannosiamine]	–	PSA expression on cultured neurons (cultured neurons): inhibit PSA expression
O=C1C=CN([C@@H]2O[C@H](CO)[C@@H](O)[C@H]2O)C(=O)C1 [3-deazauridine]	curtail	–
N[C@H](C(=O)O)[C@H]1C[C@@H]1C(=O)O [L-CCG1]	–	reduction of the amplitude of fEPSPs (CA3 mossy fiber synapses; L-CCG1 10 μM at end of experiment, similarly in both genotypes (wild-type and ST8Sia-II deficient)): 80%
